How the values were obtained:
[1] = system: sugar beet; test: Test B pre/postemergence sugar beet; type: in vivo, Beta vulgaris
In short: (§1)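 Herbicidal effect was estimated by eye on a ten-point control scale after plants spent twelve to sixteen days in a greenhouse following soil or foliar treatment. Foliar sprays targeted plants at one to four leaves; all doses were formulated in a non-phytotoxic solvent with surfactant.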

[2] = system: rice; test: Test B flood test rice; type: in vivo, Oryza sativa
In short: (§2)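 Plants were grown to the 2-leaf stage before treatment with test chemical, then held in a greenhouse for twelve to sixteen days. Injury was visually rated against untreated controls on a 0–10 scale, where 0 is no effect and 10 is complete control.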

[3] = system: duck salad; test: Test B flood test duck salad; type: in vivo, Heteranthera limosa
In short: as §2

[4] = system: corn; test: Test B pre/postemergence corn; type: in vivo, Zea mays
In short: as §1

[5] = system: giant foxtail; test: Test B pre/postemergence giant foxtail; type: in vivo, Setaria faberii
In short: as §1

[6] = system: crabgrass; test: Test B pre/postemergence crabgrass; type: in vivo, Digitaria sanguinalis
In short: as §1

[7] = system: blackgrass; test: Test B pre/postemergence blackgrass; type: in vivo, Alopecurus myosuroides
In short: as §1

[8] = system: surinam grass; test: Test B pre/postemergence surinam grass; type: in vivo, Brachiaria decumbens
In short: as §1

[9] = system: bedstraw; test: Test B pre/postemergence bedstraw; type: in vivo, Galium aparine
In short: as §1

[10] = system: smallflower flatsedge; test: Test B flood test smallflower flatsedge; type: in vivo, Cyperus difformis
In short: as §2

[11] = system: velvetleaf; test: Test B pre/postemergence velvetleaf; type: in vivo, Abutilon theophrasti
In short: as §1

[12] = system: purple nutsedge; test: Test B pre/postemergence purple nutsedge; type: in vivo, Cyperus rotundus
In short: as §1

[13] = system: rape; test: Test B pre/postemergence rape; type: in vivo, Brassica napus
In short: as §1

[14] = system: wild oat; test: Test B pre/postemergence wild oat; type: in vivo, Avena fatua
In short: as §1

[15] = system: wheat; test: Test B pre/postemergence wheat; type: in vivo, Triticum aestivum
In short: as §1

[16] = system: bamyardgrass; test: Test B flood test barnyardgrass; type: in vivo, Echinochloa crus-galli
In short: as §2

[17] = Preemergence, Rate 62 g/ha, scale of 0 to 10 where 0 is no effect and 10 is complete control
[18] = Preemergence, Rate 250 g/ha, scale of 0 to 10 where 0 is no effect and 10 is complete control
[19] = Preemergence, Rate 500 g/ha, scale of 0 to 10 where 0 is no effect and 10 is complete control
[20] = Rate 62 g/ha, Postemergence, scale of 0 to 10 where 0 is no effect and 10 is complete control
[21] = Rate 125 g/ha, Postemergence, scale 0 to 10
[22] = Rate 125 g/ha, Preemergence, scale of 0 to 10 where 0 is no effect and 10 is complete control
[23] = Rate 500 g/ha, Postemergence, scale 0 to 10, 0 no effect, 10 complete control
[24] = Rate 62 g/ha, headed Pre-emergence (flood test species), scale 0 to 10 (0 no effect, 10 complete control)
[25] = Rate 125 g/ha, Pre-emergence, flood test species, scale 0 to 10 where 0 is no effect and 10 is complete control
[26] = Rate 250 g/ha, Pre-emergence, flood-test species, scale 0 to 10, 0 is no effect, 10 is complete control
[27] = Rate 500 g/ha, Pre-emergence, flood test species, scale 0 to 10 (0 no effect, 10 complete control)

Cc1nc(C)c(Cn2c(=O)on(C(=O)N(c3ccc(F)cc3F)C(C)C)c2=O)s1 [Compound 233]
Sugarbeets plant response rating [1, 17]: 0
Sugarbeets plant response rating [1, 18]: 4
Plant response rating, Sugarbeets [1, 19]: 8
Sugarbeets plant response rating [1, 20]: 0
Sugarbeets plant response rating [1, 21]: 0
Sugarbeets plant response rating [1, 22]: 0
Plant response rating (0 to 10; 0 is no effect, 10 is complete control), Sugarbeets ([1]; Rate 250 g/ha, Postemergence): 0
Sugarbeets plant response rating [1, 23]: 4
Rice plant response rating [2, 24]: 0
Rice plant response rating [2, 25]: 0
Rice plant response rating [2, 26]: 0
Rice plant response rating [2, 27]: 0
Ducksalad plant response rating [3, 24]: 0
Ducksalad plant response rating [3, 25]: 0
Ducksalad plant response rating [3, 26]: 0
Ducksalad plant response rating [3, 27]: 0
Corn plant response rating [4, 17]: 0
Corn plant response rating [4, 18]: 0
Plant response rating, Corn [4, 19]: 0
Corn plant response rating [4, 20]: 0
Corn plant response rating [4, 21]: 0
Corn plant response rating [4, 22]: 0
Plant response rating (0 to 10; 0 is no effect, 10 is complete control), Corn ([4]; Rate 250 g/ha, Postemergence): 0
Corn plant response rating [4, 23]: 0
Giant foxtail plant response rating [5, 17]: 7
Giant foxtail plant response rating [5, 18]: 9
Plant response rating, Giant foxtail [5, 19]: 10
Giant foxtail plant response rating [5, 20]: 0
Giant foxtail plant response rating [5, 21]: 0
Giant foxtail plant response rating [5, 22]: 7
Plant response rating (0 to 10; 0 is no effect, 10 is complete control), Giant foxtail ([5]; Rate 250 g/ha, Postemergence): 3
Giant foxtail plant response rating [5, 23]: 6
Crabgrass plant response rating [6, 17]: 5
Crabgrass plant response rating [6, 18]: 9
Plant response rating, Crabgrass [6, 19]: 10
Crabgrass plant response rating [6, 20]: 0
Crabgrass plant response rating [6, 21]: 0
Crabgrass plant response rating [6, 22]: 6
Plant response rating (0 to 10; 0 is no effect, 10 is complete control), Crabgrass ([6]; Rate 250 g/ha, Postemergence): 1
Crabgrass plant response rating [6, 23]: 6
Blackgrass plant response rating [7, 17]: 2
Blackgrass plant response rating [7, 18]: 8
Plant response rating, Blackgrass [7, 19]: 9
Blackgrass plant response rating [7, 20]: 0
Blackgrass plant response rating [7, 21]: 0
Blackgrass plant response rating [7, 22]: 2
Plant response rating (0 to 10; 0 is no effect, 10 is complete control), Blackgrass ([7]; Rate 250 g/ha, Postemergence): 2
Blackgrass plant response rating [7, 23]: 5
B. signalgrass plant response rating [8, 17]: 0
B. signalgrass plant response rating ([8]; Preemergence, Rate 250 g/ha, scale 0 to 10, 0 is no effect, 10 is complete control): 4
Plant response rating, B. signalgrass [8, 19]: 4
B. signalgrass plant response rating [8, 20]: 0
B. signalgrass plant response rating ([8]; Rate 125 g/ha, Postemergence, scale 0 (no effect) to 10 (complete control)): 0
B. signalgrass plant response rating [8, 22]: 2
Plant response rating (0 to 10; 0 is no effect, 10 is complete control), B. signalgrass ([8]; Rate 250 g/ha, Postemergence): 0
B. signalgrass plant response rating [8, 23]: 1
Bedstraw plant response rating [9, 17]: 0
Bedstraw plant response rating [9, 18]: 0
Plant response rating, Bedstraw [9, 19]: 0
Bedstraw plant response rating [9, 20]: 0
Bedstraw plant response rating [9, 21]: 0
Bedstraw plant response rating [9, 22]: 0
Plant response rating (0 to 10; 0 is no effect, 10 is complete control), Bedstraw ([9]; Rate 250 g/ha, Postemergence): 3
Bedstraw plant response rating [9, 23]: 5
S. Flatsedge plant response rating [10, 24]: 0
S. Flatsedge plant response rating [10, 25]: 0
S. Flatsedge plant response rating [10, 26]: 0
S. Flatsedge plant response rating [10, 27]: 0
Velvetleaf plant response rating [11, 17]: 0
Velvetleaf plant response rating [11, 18]: 2
Plant response rating, Velvetleaf [11, 19]: 7
Velvetleaf plant response rating [11, 20]: 2
Velvetleaf plant response rating [11, 21]: 2
Velvetleaf plant response rating [11, 22]: 0
Plant response rating (0 to 10; 0 is no effect, 10 is complete control), Velvetleaf ([11]; Rate 250 g/ha, Postemergence): 3
Velvetleaf plant response rating [11, 23]: 3
Nutsedge plant response rating [12, 17]: 0
Nutsedge plant response rating [12, 18]: 0
Nutsedge plant response rating [12, 20]: 0
Nutsedge plant response rating [12, 21]: 0
Plant response rating (0 to 10; 0 is no effect, 10 is complete control), Nutsedge ([12]; Rate 250 g/ha, Postemergence): 0
Nutsedge plant response rating [12, 23]: 0
Rape plant response rating [13, 17]: 0
Rape plant response rating [13, 18]: 0
Plant response rating, Rape [13, 19]: 3
Rape plant response rating [13, 20]: 2
Rape plant response rating [13, 21]: 2
Rape plant response rating [13, 22]: 0
Plant response rating (0 to 10; 0 is no effect, 10 is complete control), Rape ([13]; Rate 250 g/ha, Postemergence): 2
Rape plant response rating [13, 23]: 3
Wild oats plant response rating [14, 17]: 0
Wild oats plant response rating [14, 18]: 2
Plant response rating, Wild oats [14, 19]: 6
Wild oats plant response rating [14, 20]: 0
Wild oats plant response rating [14, 21]: 0
Wild oats plant response rating [14, 22]: 1
Plant response rating (0 to 10; 0 is no effect, 10 is complete control), Wild oats ([14]; Rate 250 g/ha, Postemergence): 2
Wild oats plant response rating [14, 23]: 2
Wheat plant response rating [15, 17]: 0
Wheat plant response rating [15, 18]: 0
Plant response rating, Wheat [15, 19]: 0
Wheat plant response rating [15, 20]: 0
Wheat plant response rating [15, 21]: 0
Wheat plant response rating [15, 22]: 0
Plant response rating (0 to 10; 0 is no effect, 10 is complete control), Wheat ([15]; Rate 250 g/ha, Postemergence): 0
Wheat plant response rating [15, 23]: 0
Barnyardgrass plant response rating [16, 24]: 0
Barnyardgrass plant response rating [16, 25]: 0
Barnyardgrass plant response rating [16, 26]: 0
Barnyardgrass plant response rating [16, 27]: 0
